Patent publication US20240124491A1, “METHODS AND COMPOUNDS FOR TREATING FRIEDREICH'S ATAXIA” (Design Therapeutics, Inc., priority 2021, published 2024)

What follows are molecules tested on human FXN (assay: EC50 assay: FXN mRNA expression by qRT-PCR in GM15850 cells after 48 hrs compound treatment). Conditions: Homo sapiens, 48 hrs incubation, hFXN expression normalized to hGAPDH (qRT-PCR), read-out: EC50 WT (nM, 48 hr).
Assay type: cell-based
Procedure, shortened: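 FXN transcript, normalized to GAPDH by TaqMan qRT-PCR, read out after 48 hrs of compound on GM15850 cells plated at 150,000 per well. Dosing used five 3-fold steps from 150 nM final, vehicle 0.01% DMSO.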

**Q.** `COCCOCCOCCOCCOCCOCCOCCOCCOCCOCCOCCOCCOCCOCCOCCOCCC(=O)N1CCC(NC(=O)CCOCCOCCOCCN2CCC(NC(=O)C[C@@H]3N=C(c4ccc(Cl)cc4)c4c(sc(C)c4C)-n4c(C)nnc43)CC2)(C(=O)NCCOCCOCCOCCOCCNC(=O)CCNC(=O)c2nc(NC(=O)CCNC(=O)c3cc(NC(=O)c4nc(NC(=O)CCNC(=O)c5cc(NC(=O)c6nccn6C)cn5C)cn4C)cn3C)cn2C)CC1` [Compound 74] was tested. Which EC50 did it give?
**A.** > 500 nM

**Q.** For `Cc1sc2c(c1C)C(c1ccc(Cl)cc1)=N[C@@H](CC(=O)NC1CCN(CCOCCOCCOCCOCCOCCOCCOCCNC3CCN(C(=O)CCNC(=O)c4nc(NC(=O)CCNC(=O)c5nc(NC(=O)c6nc(NC(=O)CCNC(=O)c7cc(NC(=O)c8nccn8C)cn7C)cn6C)cn5C)cn4C)CC3)CC1)c1nnc(C)n1-2` [Compound 99], which EC50 is on record?
**A.** 100 to 500 nM

**Q.** `CC(=O)N1c2ccc(-c3ccc(C(=O)N4CCC(C#CC#CC5CCN(CCOCCOCCOCCOCCNC(=O)CCNC(=O)c6nc(NC(=O)CCNC(=O)c7cc(NC(=O)c8nc(NC(=O)CCNC(=O)c9cc(NC(=O)c%10nccn%10C)cn9C)cn8C)cn7C)cn6C)CC5)CC4)cc3)cc2C(Nc2ccc(Cl)cc2)C[C@@H]1C` (stereo partly drawn) [Compound 145] was tested. Which EC50 did it give?
**A.** < 100 nM

**Q.** Which EC50 does the source give for `Cc1sc2c(c1C)C(c1ccc(Cl)cc1)=N[C@@H](CC(=O)Nc1ccc(C#CC#CCNCCOCCOCCOCCOCCOCCNC(=O)CCNC(=O)c3nc(NC(=O)CCNC(=O)c4cc(NC(=O)c5nc(NC(=O)CCNC(=O)c6cc(NC(=O)c7nccn7C)cn6C)cn5C)cn4C)cn3C)cc1)c1nnc(C)n1-2` [Compound 15] here?
**A.** < 100 nM

**Q.** Which EC50 does the source give for `Cc1sc2c(c1C)C(c1ccc(Cl)cc1)=N[C@@H](CC(=O)Nc1ccc(N3CCN(CC4CCN(CCOCCOCCOCCOCCNC(=O)CCNC(=O)c5nc(NC(=O)CCNC(=O)c6cc(NC(=O)c7nc(NC(=O)CCNC(=O)c8cc(NC(=O)c9nccn9C)cn8C)cn7C)cn6C)cn5C)CC4)CC3)cc1)c1nnc(C)n1-2` [Compound 6] here?
**A.** 100 to 500 nM

**Q.** `Cc1sc2c(c1C)C(c1ccc(Cl)cc1)=N[C@@H](CC(=O)NC1CCN(CCOCCOCCOCCOCCOCCOCCOCCN3CCN(C(=O)CCNC(=O)c4nc(NC(=O)CCNC(=O)c5nc(NC(=O)c6nc(NC(=O)CCNC(=O)c7cc(NC(=O)c8nccn8C)cn7C)cn6C)cn5C)cn4C)CC3)CC1)c1nnc(C)n1-2` [Compound 98] was tested. Which EC50 did it give?
**A.** 100 to 500 nM

**Q.** How did the EC50 turn out when `COCCOCCOCCOCCOCCOCCOCCOCCOCCOCCOCCNC(=O)c1sc2c(c1C)C(c1ccc(Cl)cc1)=N[C@@H](CC(=O)N1CCC(C#CC#CC3CCN(CCOCCOCCOCCOCCNC(=O)CCNC(=O)c4nc(NC(=O)CCNC(=O)c5cc(NC(=O)c6nc(NC(=O)CCNC(=O)c7cc(NC(=O)c8nccn8C)cn7C)cn6C)cn5C)cn4C)CC3)CC1)c1nnc(C)n1-2` [Compound 133] was run?
**A.** 100 to 500 nM

**Q.** For `Cc1sc2c(c1C)C(c1ccc(Cl)cc1)=N[C@@H](CC(=O)NC1CCN(CCOCCOCCOCCOCCC(=O)NC3(C(=O)NCCOCCOCCOCCNC(=O)CCNC(=O)c4nc(NC(=O)CCNC(=O)c5cc(NC(=O)c6nc(NC(=O)CCNC(=O)c7cc(NC(=O)c8nccn8C)cn7C)cn6C)cn5C)cn4C)CCNCC3)CC1)c1nnc(C)n1-2` [Compound 70], which EC50 is on record?
**A.** 100 to 500 nM

**Q.** With `COc1ccc2c(c1)C(c1ccc(Cl)cc1)=N[C@@H](CC(=O)N1CC3(CCN(CCOCCOCCOCCN4CCN(CCOCCOCCOCCNC(=O)CCNC(=O)c5nc(NC(=O)CCNC(=O)c6cc(NC(=O)c7nc(NC(=O)CCNC(=O)c8cc(NC(=O)c9nccn9C)cn8C)cn7C)cn6C)cn5C)CC4)CC3)C1)c1nnc(C)n1-2` [Compound 26] as the molecule, how does the EC50 read?
**A.** > 500 nM

**Q.** For `Cc1sc2c(c1C)C(c1ccc(Cl)cc1)=N[C@@H](CC(=O)NC1CCN(CC#CC#CC3CCN(CCOCCOCCOCCOCCOCCNC(=O)CCNC(=O)c4nc(NC(=O)CCNC(=O)c5cc(NC(=O)c6nc(NC(=O)CCNC(=O)c7cc(NC(=O)c8nccn8C)cn7C)cn6C)cn5C)cn4C)CC3)CC1)c1nnc(C)n1-2` [Compound 92], which EC50 is on record?
**A.** < 100 nM

**Q.** Which EC50 does the source give for `Cc1sc2c(c1C)C(c1ccc(Cl)cc1)=N[C@@H](CC(=O)NC1CCN(CCOCCOCCN(CCOCCOCCOCCOCCOCCNC(=O)CCNC(=O)c3nc(NC(=O)CCNC(=O)c4cc(NC(=O)c5nc(NC(=O)CCNC(=O)c6cc(NC(=O)c7nccn7C)cn6C)cn5C)cn4C)cn3C)CCOCCOCCN3CCC(NC(=O)C[C@@H]4N=C(c5ccc(Cl)cc5)c5c(sc(C)c5C)-n5c(C)nnc54)CC3)CC1)c1nnc(C)n1-2` [Compound 112] here?
**A.** 100 to 500 nM

**Q.** For `Cc1sc2c(c1C)C(c1ccc(NC(=O)CCCCCCCCCCCCCCCNCCc3c[nH]c4ccccc34)cc1)=N[C@@H](CC(=O)Nc1ccc(OCCOCCOCCOCCOCCOCCOCCOCCOCCNC(=O)CCNC(=O)c3nc(NC(=O)CCNC(=O)c4cc(NC(=O)c5nc(NC(=O)CCNC(=O)c6cc(NC(=O)c7nccn7C)cn6C)cn5C)cn4C)cn3C)cc1)c1nnc(C)n1-2` [Compound 200], which EC50 is on record?
**A.** > 500 nM

**Q.** How did the EC50 turn out when `Cc1sc2c(c1C)C(c1ccc(Cl)cc1)=N[C@@H](CC(=O)N1CC3(CCN(CCOCCOCCOCCN4CCN(CCOCCOCCOCCNC(=O)CCNC(=O)c5nc(NC(=O)CCNC(=O)c6cc(NC(=O)c7nc(NC(=O)CCNC(=O)c8cc(NC(=O)c9nccn9C)cn8C)cn7C)cn6C)cn5C)CC4)CC3)C1)c1nnc(C)n1-2` [Compound 25] was run?
**A.** > 500 nM

**Q.** `Cc1sc2c(c1C)C(c1ccc(Cl)cc1)=N[C@@H](CC(=O)NC1CCN(CCN3CCN(CCOCCOCCOCCOCCOCCOCCNC(=O)CCNC(=O)c4nc(NC(=O)CCNC(=O)c5cc(NC(=O)c6nc(NC(=O)CCNC(=O)c7cc(NC(=O)c8nccn8C)cn7C)cn6C)cn5C)cn4C)CC3)CC1)c1nnc(C)n1-2` [Compound 91] was tested. Which EC50 did it give?
**A.** < 100 nM

**Q.** For `Cc1sc2c(c1C)C(c1ccc(Cl)cc1)=N[C@@H](CC(=O)Nc1ccc(C#CC3CCN(CCOCCOCCOCCOCCNC(=O)CCNC(=O)c4nc(NC(=O)CCNC(=O)c5cc(NC(=O)c6nc(NC(=O)CCNC(=O)c7cc(NC(=O)c8nccn8C)cn7C)cn6C)cn5C)cn4C)CC3)cc1)c1nnc(C)n1-2` [Compound 13], which EC50 is on record?
**A.** < 100 nM

**Q.** `Cc1sc2c(c1C)C(c1ccc(Cl)cc1)=N[C@@H](CC(=O)N1CCN(CC3CCN(CCOCCOCCOCCOCCN4CCC(CN5CCN(C(=O)CCNC(=O)c6nc(NC(=O)CCNC(=O)c7cc(NC(=O)c8nc(NC(=O)CCNC(=O)c9cc(NC(=O)c%10nccn%10C)cn9C)cn8C)cn7C)cn6C)CC5)CC4)CC3)CC1)c1nnc(C)n1-2` [Compound 19] was tested. Which EC50 did it give?
**A.** > 500 nM

**Q.** `Cc1sc2c(c1C)C(c1ccc(Cl)cc1)=N[C@@H](CC(=O)Nc1ccc(C#CC#CCNCCOCCOCCOCCOCCOCCOCCNC(=O)CCNC(=O)c3nc(NC(=O)CCNC(=O)c4cc(NC(=O)c5nc(NC(=O)CCNC(=O)c6cc(NC(=O)c7nccn7C)cn6C)cn5C)cn4C)cn3C)cc1)c1nnc(C)n1-2` [Compound 14] was tested. Which EC50 did it give?
**A.** 100 to 500 nM

**Q.** For `Cc1sc2c(c1C)C(c1ccc(Cl)cc1)=N[C@@H](CC(=O)NC1CCN(CCOCCOCCOCCN3CCN(CCOCCOCCOCCNC(=O)CCNC(=O)c4nc(NC(=O)CCNC(=O)c5cc(NC(=O)c6nc(NC(=O)CCNC(=O)c7cc(NC(=O)c8nccn8C)cn7C)cn6C)cn5C)cn4C)CC3)CC1)c1nnc(C)n1-2` [Compound 23], which EC50 is on record?
**A.** 100 to 500 nM

**Q.** For `Cc1sc2c(c1C)C(c1ccc(Cl)cc1)=N[C@@H](CC(=O)Nc1ccc(C#CC#CCN(CCOCCOCCOCCOCCOCCNC(=O)CCNC(=O)c3nc(NC(=O)CCNC(=O)c4cc(NC(=O)c5nc(NC(=O)CCNC(=O)c6cc(NC(=O)c7nccn7C)cn6C)cn5C)cn4C)cn3C)CCC3CCN(C)CC3)cc1)c1nnc(C)n1-2` [Compound 43], which EC50 is on record?
**A.** 100 to 500 nM

**Q.** With `COCCOCCOCCOCCN(CCCCCn1cc(NC(=O)c2nc(NC(=O)CCNC(=O)c3cc(NC(=O)c4nccn4C)cn3C)cn2C)cc1C(=O)NCCC(=O)Nc1cn(C)c(C(=O)NCCC(=O)NCCOCCOCCOCCOCCOCCOCCOCCOCCOc2ccc(NC(=O)c3cc4c(-c5cc(C(C)(C)O)ccc5Oc5c(C)cc(F)cc5C)cn(C)c(=O)c4[nH]3)cc2)n1)CCOCCOCCOCCOC` [Compound 241] as the molecule, how does the EC50 read?
**A.** > 500 nM

**Q.** How did the EC50 turn out when `Cc1sc2c(c1C)C(c1ccc(Cl)cc1)=N[C@@H](CC(=O)N1CCC(C#CC#CC3CCN(CCOCCOCCNC(=O)CCNC(=O)c4nc(NC(=O)CCNC(=O)c5cc(NC(=O)c6nc(NC(=O)CCNC(=O)c7cc(NC(=O)c8nccn8C)cn7C)cn6C)cn5C)cn4C)CC3)CC1)c1nnc(C)n1-2` [Compound 138] was run?
**A.** < 100 nM

**Q.** `Cc1sc2c(c1C)C(c1ccc(Cl)cc1)=N[C@@H](CC(=O)Nc1ccc(OCCOCCOCCOCCOCCOCCOCCOCCOCCNC(=O)CCNC(=O)CCNC(=O)c3nc(NC(=O)CCNC(=O)c4cc(NC(=O)c5nc(NC(=O)CCNC(=O)c6cc(NC(=O)c7nccn7C)cn6C)cn5C)cn4C)cn3C)cc1)c1nnc(C)n1-2` [Compound 229] was tested. Which EC50 did it give?
**A.** < 100 nM

**Q.** For `Cc1c(C(=O)NCCN2CCN(C)CC2)sc2c1C(c1ccc(Cl)cc1)=N[C@@H](CC(=O)N1CCC(C#CC#CC3CCN(CCOCCOCCOCCOCCNC(=O)CCNC(=O)c4nc(NC(=O)CCNC(=O)c5cc(NC(=O)c6nc(NC(=O)CCNC(=O)c7cc(NC(=O)c8nccn8C)cn7C)cn6C)cn5C)cn4C)CC3)CC1)c1nnc(C)n1-2` [Compound 131], which EC50 is on record?
**A.** 100 to 500 nM

**Q.** How did the EC50 turn out when `Cc1sc2c(c1C)C(c1ccc(Cl)cc1)=N[C@@H](CC(=O)Nc1ccc(N3CCC(N4CCN(CCOCCOCCOCCOCCNC(=O)CCNC(=O)c5nc(NC(=O)CCNC(=O)c6cc(NC(=O)c7nc(NC(=O)CCNC(=O)c8cc(NC(=O)c9nccn9C)cn8C)cn7C)cn6C)cn5C)CC4)CC3)cc1)c1nnc(C)n1-2` [Compound 10] was run?
**A.** < 100 nM

**Q.** `COc1ccc2c(c1)C(c1ccc(Cl)cc1)=N[C@@H](CC(=O)N1CCN(CCOCCOCCOCCN3CCN(CCOCCOCCOCCNC(=O)CCNC(=O)c4nc(NC(=O)CCNC(=O)c5cc(NC(=O)c6nc(NC(=O)CCNC(=O)c7cc(NC(=O)c8nccn8C)cn7C)cn6C)cn5C)cn4C)CC3)CC1)c1nnc(C)n1-2` [Compound 28] was tested. Which EC50 did it give?
**A.** > 500 nM

**Q.** `Cc1sc2c(c1C)C(c1ccc(Cl)cc1)=N[C@@H](CC(=O)Nc1ccc(N3CCC(N4CCN(CCOCCOCCOCCOCCOCCOCCNC(=O)CCNC(=O)c5nc(NC(=O)CCNC(=O)c6cc(NC(=O)c7nc(NC(=O)CCNC(=O)c8cc(NC(=O)c9nccn9C)cn8C)cn7C)cn6C)cn5C)CC4)CC3)cc1)c1nnc(C)n1-2` [Compound 8] was tested. Which EC50 did it give?
**A.** < 100 nM

**Q.** For `Cc1sc2c(c1C)C(c1ccc(Cl)cc1)=N[C@@H](CC(=O)NCCOCCOCCOCCOCCOCCOCCOCCNC(=O)c1sc3c(c1C)C(c1ccc(Cl)cc1)=N[C@@H](CC(=O)NC1CCN(CCOCCOCCOCCOCCOCCOCCOCCOCCNC(=O)CCNC(=O)c4nc(NC(=O)CCNC(=O)c5cc(NC(=O)c6nc(NC(=O)CCNC(=O)c7cc(NC(=O)c8nccn8C)cn7C)cn6C)cn5C)cn4C)CC1)c1nnc(C)n1-3)c1nnc(C)n1-2` [Compound 117], which EC50 is on record?
**A.** < 100 nM
